Molecules are shown by their SMILES.

Results on 28 compounds are retold here after patent US10544150B2, “NK-3 receptor selective antagonist compounds, pharmaceutical composition and methods for use in NK-3 receptors mediated disorders” (Ogeda SA, priority 2010, dated 2020).

human NK-3 receptor, sequence (P29371 whole entry): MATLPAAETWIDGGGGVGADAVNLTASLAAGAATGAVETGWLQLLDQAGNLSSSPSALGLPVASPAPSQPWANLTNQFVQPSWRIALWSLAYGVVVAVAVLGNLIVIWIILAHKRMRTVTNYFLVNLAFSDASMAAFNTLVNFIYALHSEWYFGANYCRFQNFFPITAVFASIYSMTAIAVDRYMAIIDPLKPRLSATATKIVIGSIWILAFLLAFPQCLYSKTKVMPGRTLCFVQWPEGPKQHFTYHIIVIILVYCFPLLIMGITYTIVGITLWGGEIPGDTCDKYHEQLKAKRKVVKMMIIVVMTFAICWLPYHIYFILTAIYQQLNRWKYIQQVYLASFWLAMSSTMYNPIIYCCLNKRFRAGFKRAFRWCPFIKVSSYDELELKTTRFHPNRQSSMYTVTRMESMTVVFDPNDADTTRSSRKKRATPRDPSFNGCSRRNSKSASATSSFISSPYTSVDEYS

The target of this assay is human NK-3 receptor (Homo sapiens (Human), UniProt P29371). As to the kind of experiment: 3H-SB222200 binding competition assay with human NK-3 receptor. The settings on record: 3H-SB222200 displacement, CHO cell membranes expressing human NK3 receptor; read-out: Ki range. How it is done:
The affinity of compounds of the invention for the tachykinin receptors was determined by measuring the ability of the compounds of the invention to displace a radiolabeled ligand from its specifics binding site.
^3H-SB222200 Binding Competition Assay with Human NK-3 Receptor
The ability of the compounds of the invention to inhibit the binding of the NK-3 receptor selective antagonist SB222200 was assessed by an in vitro radioligand binding assay. Membranes were prepared from Chinese hamster ovary recombinant cells which express the human NK3 receptor. The membranes were incubated with 5 nM ^3H-SB222200_(ARC) in a HEPES 25 mM/NaCl 0.1M/CaCl2 1 mM/MgCl2 5 Mm/BSA 0.5%/Saponin 10 μg/ml buffer at pH 7.4 and various concentrations of the compounds of the invention. The amount of tritiated SB222200 bound to the receptor was determined after filtration by the quantification of membrane associated radioactivity using the TopCount-NXT reader (Packard). […] In Table 3 biological results obtained using the ^3H-SB222200 binding competition assay with compounds of the invention are set out in tabulated form. In this table the calculated Ki is given. The Ki value obtained (in accordance with the protocol set forth above) is represented as follows: “+++” means Ki<500 nM; “++” means 500 nM≤Ki≤1 μM; “+” means 1 μM<Ki≤5 μM; “#” means Ki>5 μM.
`CC1c2nnc(-c3csc(-c4ccccc4)n3)n2CCN1C(=O)c1ccc(-c2cccs2)cc1` (stereo not shown) [Compound 62, (8-methyl-3-(2-phenylthiazol-4-yl)-5,6-dihydro-[1,2,4]triazolo[4,3-a]pyrazin-7(8H)-yl)(4-(thiophen-2-yl)phenyl)methanone]: the Ki was less than 500 nM.

In the case of `O=C(c1ccc(-c2ccsc2)cc1)N1CCn2c(nnc2-c2csc(-c3ccccc3)n2)C1` [Compound 63, (3-(2-phenylthiazol-4-yl)-5,6-dihydro-[1,2,4]triazolo[4,3-a]pyrazin-7(8H)-yl)(4-(thiophen-3-yl)phenyl)methanone], the Ki was less than 500 nM.

For the compound `CC1c2nnc(-c3csc(-c4ccccc4)n3)n2CCN1C(=O)c1ccc(-c2ccsc2)cc1` (stereo not shown) [Compound 64, (8-methyl-3-(2-phenylthiazol-4-yl)-5,6-dihydro-[1,2,4]triazolo[4,3-a]pyrazin-7(8H)-yl)(4-(thiophen-3-yl)phenyl)methanone], the Ki was less than 500 nM.

For the compound `CC1c2nnc(-c3ccc4ccccc4n3)n2CCN1C(=O)c1ccc(-c2cccs2)cc1` (stereo not shown) [Compound 65, (8-methyl-3-(quinolin-2-yl)-5,6-dihydro-[1,2,4]triazolo[4,3-a]pyrazin-7(8H)-yl)(4-(thiophen-2-yl)phenyl)methanone], the Ki was less than 500 nM.

`O=C(c1ccc(-c2cccs2)cc1)N1CCn2c(nnc2-c2ccc3ccccc3n2)C1` [Compound 69, (3-(quinolin-2-yl)-5,6-dihydro-[1,2,4]triazolo[4,3-a]pyrazin-7(8H)-yl)(4-(thiophen-2-yl)phenyl)methanone]: the Ki was less than 500 nM.

On to `CC1c2nnc(-c3csc(-c4ccc(F)cc4)n3)n2CCN1C(=O)c1ccc(F)cc1` (stereo not shown) [Compound 70, (4-fluorophenyl)(3-(2-(4-fluorophenyl)thiazol-4-yl)-8-methyl-5,6-dihydro-[1,2,4]triazolo[4,3-a]pyrazin-7(8H)-yl)methanone], for which the Ki is less than 500 nM.

`Cc1nc(-c2ccccc2)sc1-c1nnc2n1CCN(C(=O)c1ccc(-c3ccccc3)cc1)C2C` (stereo not shown) [Compound 72, [1,1′-biphenyl]-4-yl(8-methyl-3-(4-methyl-2-phenylthiazol-5-yl)-5,6-dihydro-[1,2,4]triazolo[4,3-a]pyrazin-7(8H)-yl)methanone]: the Ki was less than 500 nM.

On to `O=C(c1ccc(-c2cccs2)cc1)N1CCn2c(nnc2-c2csc(-c3ccc(F)cc3)n2)C1` [Compound 73, (3-(2-(4-fluorophenyl)thiazol-4-yl)-5,6-dihydro-[1,2,4]triazolo[4,3-a]pyrazin-7(8H)-yl)(4-(thiophen-2-yl)phenyl)methanone], for which the Ki is less than 500 nM.

On to `Cc1nc(-c2ccccc2)sc1-c1nnc2n1CCN(C(=O)c1ccc(F)cc1)C2C` (stereo not shown) [Compound 75, (4-fluorophenyl)(8-methyl-3-(4-methyl-2-phenylthiazol-5-yl)-5,6-dihydro-[1,2,4]triazolo[4,3-a]pyrazin-7(8H)-yl)methanone], for which the Ki lay within 500 to 1000 nM.

As for `CC1c2nnc(-c3csc(-c4ccc(F)cc4)n3)n2CCN1C(=O)c1ccc(-c2ccccc2)cc1` (stereo not shown) [Compound 76, [1,1′-biphenyl]-4-yl(3-(2-(4-fluorophenyl)thiazol-4-yl)-8-methyl-5,6-dihydro-[1,2,4]triazolo[4,3-a]pyrazin-7(8H)-yl)methanone], the Ki is less than 500 nM.

Consider `CC1c2nnc(-c3csc(-c4ccc(F)cc4F)n3)n2CCN1C(=O)c1ccc(F)cc1` (stereo not shown) [Compound 77, (3-(2-(2,4-difluorophenyl)thiazol-4-yl)-8-methyl-5,6-dihydro-[1,2,4]triazolo[4,3-a]pyrazin-7(8H)-yl)(4-fluorophenyl)methanone], for which the Ki is less than 500 nM.

Take `CC1c2nnc(-c3csc(-c4ccc(F)cc4)n3)n2CCN1C(=O)c1ccc(-c2cccs2)cc1` (stereo not shown) [Compound 78, (3-(2-(4-fluorophenyl)thiazol-4-yl)-8-methyl-5,6-dihydro-[1,2,4]triazolo[4,3-a]pyrazin-7(8H)-yl)(4-(thiophen-2-yl)phenyl)methanone]: the Ki is less than 500 nM.

In the case of `CC1c2nnc(-c3csc(-c4ccc(F)cc4F)n3)n2CCN1C(=O)c1ccc(-c2ccccc2)cc1` (stereo not shown) [Compound 79, [1,1′-biphenyl]-4-yl(3-(2-(2,4-difluorophenyl)thiazol-4-yl)-8-methyl-5,6-dihydro-[1,2,4]triazolo[4,3-a]pyrazin-7(8H)-yl)methanone], the Ki was less than 500 nM.

Regarding `CC1c2nnc(-c3csc(-c4ccc(F)cc4F)n3)n2CCN1C(=O)c1ccc(-c2cccs2)cc1` (stereo not shown) [Compound 80, (3-(2-(2,4-difluorophenyl)thiazol-4-yl)-8-methyl-5,6-dihydro-[1,2,4]triazolo[4,3-a]pyrazin-7(8H)-yl)(4-(thiophen-2-yl)phenyl)methanone], the Ki was less than 500 nM.

Regarding `CC1c2nnc(-c3nc(-c4ccccc4)no3)n2CCN1C(=O)c1ccc(-c2cccs2)cc1` (stereo not shown) [Compound 85, (8-methyl-3-(3-phenyl-1,2,4-oxadiazol-5-yl)-5,6-dihydro-[1,2,4]triazolo[4,3-a]pyrazin-7(8H)-yl)(4-(thiophen-2-yl)phenyl)methanone], the Ki was less than 500 nM.

For `O=C(c1ccc(-c2ccccc2)cn1)N1CCn2c(nnc2-c2ccc3ccccc3n2)C1` [Compound 90, (5-phenylpyridin-2-yl)(3-(quinolin-2-yl)-5,6-dihydro-[1,2,4]triazolo[4,3-a]pyrazin-7(8H)-yl)methanone], the Ki is less than 500 nM.

On to `O=C(c1ccc(-c2ccccc2)nc1)N1CCn2c(nnc2-c2ccc3ccccc3n2)C1` [Compound 91, (6-phenylpyridin-3-yl)(3-(quinolin-2-yl)-5,6-dihydro-[1,2,4]triazolo[4,3-a]pyrazin-7(8H)-yl)methanone], for which the Ki was less than 500 nM.

For `O=C(c1cnc(-c2ccccc2)nc1)N1CCn2c(nnc2-c2ccc3ccccc3n2)C1` [Compound 92, (2-phenylpyrimidin-5-yl)(3-(quinolin-2-yl)-5,6-dihydro-[1,2,4]triazolo[4,3-a]pyrazin-7(8H)-yl)methanone], the Ki was 1000 to 5000 nM.

Regarding `O=C(C1CCC(c2ccccc2)CC1)N1CCn2c(nnc2-c2ccc3ccccc3n2)C1` (stereo not shown) [Compound 93, (4-phenylcyclohexyl)(3-(quinolin-2-yl)-5,6-dihydro-[1,2,4]triazolo[4,3-a]pyrazin-7(8H)-yl)methanone], the Ki lay in the range of 1000 to 5000 nM.

As for `CC(C)CC(=O)N1CCn2c(nnc2-c2ccc3ccccc3n2)C1` [Compound 95, 3-methyl-1-(3-(quinolin-2-yl)-5,6-dihydro-[1,2,4]triazolo[4,3-a]pyrazin-7(8H)-yl)butan-1-one], the Ki lay within 1000 to 5000 nM.

Regarding `O=C(c1ccccc1-c1ccccc1)N1CCn2c(nnc2-c2ccc3ccccc3n2)C1` [Compound 96, [1,1′-biphenyl]-2-yl(3-(quinolin-2-yl)-5,6-dihydro-[1,2,4]triazolo[4,3-a]pyrazin-7(8H)-yl)methanone], the Ki was more than 5000 nM.

In the case of `N#Cc1ccc(-c2ccc(C(=O)N3CCn4c(nnc4-c4ccc5ccccc5n4)C3)cc2)cc1` [Compound 103, 4′-(3-(quinolin-2-yl)-5,6,7,8-tetrahydro-[1,2,4]triazolo[4,3-a]pyrazine-7-carbonyl)-[1,1′-biphenyl]-4-carbonitrile], the Ki lay within 1000 to 5000 nM.

`CC1Cn2c(nnc2-c2csc(-c3ccc(F)cc3)n2)CN1C(=O)c1ccc(-c2cccs2)cc1` (stereo not shown) [Compound 107, (3-(2-(4-fluorophenyl)thiazol-4-yl)-6-methyl-5,6-dihydro-[1,2,4]triazolo[4,3-a]pyrazin-7(8H)-yl)(4-(thiophen-2-yl)phenyl)methanone]: the Ki lay within 500 to 1000 nM.

For `CC1CN(C(=O)c2ccc(-c3cccs3)cc2)Cc2nnc(-c3csc(-c4ccc(F)cc4)n3)n21` (stereo not shown) [Compound 108, (3-(2-(4-fluorophenyl)thiazol-4-yl)-5-methyl-5,6-dihydro-[1,2,4]triazolo[4,3-a]pyrazin-7(8H)-yl)(4-(thiophen-2-yl)phenyl)methanone], the Ki fell in the range of 500 to 1000 nM.

`CC1c2nnc(-c3csc(-c4ccc(F)cc4)n3)n2CCN1C(=O)c1ccc(F)c(F)c1` (stereo not shown) [Compound 110, (3,4-difluorophenyl)(3-(2-(4-fluorophenyl)thiazol-4-yl)-8-methyl-5,6-dihydro-[1,2,4]triazolo[4,3-a]pyrazin-7(8H)-yl)methanone]: the Ki was less than 500 nM.

For `CC1c2nnc(-c3csc(-c4ccc(F)cc4)n3)n2CCN1C(=O)c1cc(F)c(F)c(F)c1` (stereo not shown) [Compound 113, (3-(2-(4-fluorophenyl)thiazol-4-yl)-8-methyl-5,6-dihydro-[1,2,4]triazolo[4,3-a]pyrazin-7(8H)-yl)(3,4,5-trifluorophenyl)methanone], the Ki was less than 500 nM.

Regarding `C[C@@H]1c2nnc(-c3ccc4ccccc4n3)n2CCN1C(=O)c1ccc(F)cc1` [Compound 115, (R)-(4-fluorophenyl)(8-methyl-3-(quinolin-2-yl)-5,6-dihydro-[1,2,4]triazolo[4,3-a]pyrazin-7(8H)-yl)methanone], the Ki is less than 500 nM.

On to `C[C@@H]1c2nnc(-c3csc(N4CCOCC4)n3)n2CCN1C(=O)c1ccc(-c2ccccc2)cc1` [Compound 118, (R)-[1,1′-biphenyl]-4-yl(8-methyl-3-(2-morpholinothiazol-4-yl)-5,6-dihydro-[1,2,4]triazolo[4,3-a]pyrazin-7(8H)-yl)methanone], for which the Ki is less than 500 nM.
